These results are taken from patent publication US20080234262A1 (Wyeth, priority 2007, published 2008).

For this assay, the target named is PI3K (Homo sapiens, UniProt P42336). The assay is described as follows: Fluorescence polarization assay for PI3K.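 Note: PI3K kinase reaction on PIP2 with ATP, 30-60 min, product sensed by GST-GRP with red probe in fluorescence polarization (mP), controls without enzyme and at zero time.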 The following applies: PI3Kα; read-out: PI3Kα IC50. In kind it is biochemical.
Sequence of PI3K (P42336 whole entry): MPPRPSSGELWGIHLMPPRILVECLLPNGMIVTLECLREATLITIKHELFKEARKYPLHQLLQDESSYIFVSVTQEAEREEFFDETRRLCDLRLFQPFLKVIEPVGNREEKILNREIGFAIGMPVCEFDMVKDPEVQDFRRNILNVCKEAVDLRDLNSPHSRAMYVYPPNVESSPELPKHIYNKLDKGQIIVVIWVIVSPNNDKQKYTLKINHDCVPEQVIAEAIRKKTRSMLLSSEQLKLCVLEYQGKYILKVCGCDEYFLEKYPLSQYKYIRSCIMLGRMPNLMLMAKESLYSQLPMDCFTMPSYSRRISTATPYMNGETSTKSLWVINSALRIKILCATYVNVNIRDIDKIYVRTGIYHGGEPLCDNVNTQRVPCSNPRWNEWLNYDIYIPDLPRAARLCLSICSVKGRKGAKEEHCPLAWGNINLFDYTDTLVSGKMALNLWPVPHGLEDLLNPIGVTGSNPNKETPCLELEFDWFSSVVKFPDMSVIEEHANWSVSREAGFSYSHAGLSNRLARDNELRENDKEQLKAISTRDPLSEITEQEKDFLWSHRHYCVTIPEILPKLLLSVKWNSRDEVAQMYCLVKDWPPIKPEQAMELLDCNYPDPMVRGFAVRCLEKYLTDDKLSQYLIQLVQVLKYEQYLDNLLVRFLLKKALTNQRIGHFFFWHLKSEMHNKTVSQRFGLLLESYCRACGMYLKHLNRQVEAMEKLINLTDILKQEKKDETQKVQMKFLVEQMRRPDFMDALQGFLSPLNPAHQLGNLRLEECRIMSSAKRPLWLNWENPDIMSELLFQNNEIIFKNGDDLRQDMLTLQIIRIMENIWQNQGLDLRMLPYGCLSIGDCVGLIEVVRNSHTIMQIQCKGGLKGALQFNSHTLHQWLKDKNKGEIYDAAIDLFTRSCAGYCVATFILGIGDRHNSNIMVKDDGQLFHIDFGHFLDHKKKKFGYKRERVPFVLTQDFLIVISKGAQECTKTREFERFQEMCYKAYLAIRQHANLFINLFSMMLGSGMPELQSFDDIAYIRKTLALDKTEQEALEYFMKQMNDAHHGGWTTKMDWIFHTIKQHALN
Sequence of PI3K (P27986 whole entry partner): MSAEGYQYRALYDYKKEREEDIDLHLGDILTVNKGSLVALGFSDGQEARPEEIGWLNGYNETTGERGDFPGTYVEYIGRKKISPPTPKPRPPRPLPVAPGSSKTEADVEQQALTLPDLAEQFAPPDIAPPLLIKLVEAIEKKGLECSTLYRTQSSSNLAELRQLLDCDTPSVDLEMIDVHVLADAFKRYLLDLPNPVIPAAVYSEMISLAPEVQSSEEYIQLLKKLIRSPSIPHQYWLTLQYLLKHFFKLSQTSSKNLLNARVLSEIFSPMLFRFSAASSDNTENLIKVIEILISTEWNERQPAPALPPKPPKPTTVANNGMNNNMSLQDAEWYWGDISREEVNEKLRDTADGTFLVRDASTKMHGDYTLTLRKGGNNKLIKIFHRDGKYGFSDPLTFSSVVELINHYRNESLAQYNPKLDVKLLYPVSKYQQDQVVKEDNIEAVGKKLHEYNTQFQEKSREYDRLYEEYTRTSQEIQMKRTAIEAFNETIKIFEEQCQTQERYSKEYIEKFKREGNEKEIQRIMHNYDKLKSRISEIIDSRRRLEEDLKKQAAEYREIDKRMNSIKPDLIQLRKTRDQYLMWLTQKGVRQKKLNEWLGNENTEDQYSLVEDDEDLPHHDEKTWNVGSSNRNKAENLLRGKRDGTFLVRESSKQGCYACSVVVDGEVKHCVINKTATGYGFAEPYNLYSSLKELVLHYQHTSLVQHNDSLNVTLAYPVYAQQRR
Consider `c1ccc(CN2CCC(n3ncc4c(N5CCOCC5)nc(-c5ccc6ncccc6c5)nc43)CC2)cc1` [Compound 369, 6-[1-(1-benzylpiperidin-4-yl)-4-morpholin-4-yl-1H-pyrazolo[3,4-d]pyrimidin-6-yl]quinoline], for which the IC50 was found to be 466 nM.

As to `CNC(=O)Nc1ccc(-c2nc(N3CCOCC3)c3cnn(C4CCN(C(=O)c5cnccn5)CC4)c3n2)cc1` [Compound 666, 1-methyl-3-(4-{4-morpholin-4-yl-1-[1-(pyrazin-2-ylcarbonyl)piperidin-4-yl]-1H-pyrazolo[3,4-d]pyrimidin-6-yl}phenyl)urea], the concentration for half-maximal inhibition (IC50) stood at 198 nM.

As to `Cn1ncc2c(N3CCOCC3)nc(-c3cccnc3)nc21` [Compound 1], the IC50 was 813 nM.

In the case of `N#CNC(=O)Nc1ccc(-c2nc(N3CCOCC3)c3cnn(C4CCN(Cc5cccnc5)CC4)c3n2)cc1` [Compound 653, N′-cyano-N-(4-{4-morpholin-4-yl-1-[1-(pyridin-3-ylmethyl)piperidin-4-yl]-1H-pyrazolo[3,4-d]pyrimidin-6-yl}phenyl)carbamimidic acid], the IC50 turned out to be 363 nM.

On to `O=C(NCCO)Nc1ccc(-c2nc(N3CCOCC3)c3cnn(C4CCN(C(=O)c5ccccc5)CC4)c3n2)cc1` [Compound 630, 1-{4-[1-(1-benzoylpiperidin-4-yl)-4-morpholin-4-yl-1H-pyrazolo[3,4-d]pyrimidin-6-yl]phenyl}-3-(2-hydroxyethyl)urea], for which the IC50 worked out at 229 nM.

For the compound `CCOC(=O)Nc1ccc(-c2nc(N3CCOCC3)c3cnn(C4CCN(C(=O)c5ccccc5)CC4)c3n2)cc1` [Compound 628, ethyl {4-[1-(1-benzoylpiperidin-4-yl)-4-morpholin-4-yl-1H-pyrazolo[3,4-d]pyrimidin-6-yl]phenyl}carbamate], the IC50 was determined as 1580 nM.

As to `CNC(=O)Nc1ccc(-c2nc(N3CCOCC3)c3cnn(C4CCN(C(=O)COC)CC4)c3n2)cc1` [Compound 718, 1-(4-{1-[1-(methoxyacetyl)piperidin-4-yl]-4-morpholin-4-yl-1H-pyrazolo[3,4-d]pyrimidin-6-yl}phenyl)-3-methylurea], the IC50 is 287 nM.

As for `CNC(=O)Nc1ccc(-c2nc(N3CCOCC3)c3cn[nH]c3n2)cc1` [Compound 927, 1-methyl-3-[4-(4-morpholin-4-yl-1H-pyrazolo[3,4-d]pyrimidin-6-yl)phenyl]urea], the IC50 was determined as 104 nM.

`O=C(NCc1ccccc1)Nc1ccc(-c2nc(N3CCOCC3)c3cnn(C4CCN(Cc5ccccc5)CC4)c3n2)cc1` [Compound 258, 1-benzyl-3-{4-[1-(1-benzylpiperidin-4-yl)-4-morpholin-4-yl-1H-pyrazolo[3,4-d]pyrimidin-6-yl]phenyl}urea]: the IC50 amounted to 533 nM.

With `O=C(NCc1ccco1)Nc1ccc(-c2nc(N3CCOCC3)c3cnn(C4CCN(Cc5cccnc5)CC4)c3n2)cc1` [Compound 376, 1-(2-furylmethyl)-3-(4-{4-morpholin-4-yl-1-[1-(pyridin-3-ylmethyl)piperidin-4-yl]-1H-pyrazolo[3,4-d]pyrimidin-6-yl}phenyl)urea], the IC50 is 359 nM.

As for `Cn1ncc2c(N3CCOCC3)nc(-c3ccoc3)nc21` [Compound 3], the IC50 came out at 915 nM.

With `CNC(=O)Nc1ccc(-c2nc(N3CCOCC3)c3cnn(C4CCN(Cc5ccco5)CC4)c3n2)cc1` [Compound 647, 1-(4-{1-[1-(2-furylmethyl)piperidin-4-yl]-4-morpholin-4-yl-1H-pyrazolo[3,4-d]pyrimidin-6-yl}phenyl)-3-methylurea], the IC50 worked out at 63 nM.

Regarding `CNC(=O)Nc1ccc(-c2nc(N3CCOCC3)c3cnn(C4CCN(Cc5cccc(Cl)c5)CC4)c3n2)cc1` [Compound 640, 1-(4-{1-[1-(3-chlorobenzyl)piperidin-4-yl]-4-morpholin-4-yl-1H-pyrazolo[3,4-d]pyrimidin-6-yl}phenyl)-3-methylurea], the IC50 came out at 42 nM.

Take `CC(=O)Nc1ccc(-c2nc(N3CCOCC3)c3cnn(C4CCN(Cc5cccnc5)CC4)c3n2)cc1` [Example 158, N-(4-{4-morpholin-4-yl-1-[1-(pyridin-3-ylmethyl)piperidin-4-yl]-1H-pyrazolo[3,4-d]pyrimidin-6-yl}phenyl)acetamide]: the IC50 turned out to be 404 nM.

As for `CNC(=O)Nc1ccc(-c2nc(N3CCOCC3)c3cnn(C4CCN(Cc5ccccc5)CC4)c3n2)cc1F` [Example 348, 1-{4-[1-(1-benzylpiperidin-4-yl)-4-morpholin-4-yl-1H-pyrazolo[3,4-d]pyrimidin-6-yl]-2-fluorophenyl}-3-methylurea], the IC50 stood at 199 nM.

As for `NC(=O)Cc1ccc(-c2nc(N3CCOCC3)c3cnn(C4CCN(Cc5ccccc5)CC4)c3n2)cc1` [Compound 370, 2-{4-[1-(1-benzylpiperidin-4-yl)-4-morpholin-4-yl-1H-pyrazolo[3,4-d]pyrimidin-6-yl]phenyl}acetamide], the IC50 came to 3130 nM.

Take `O=C(Nc1ccc(-c2nc(N3CCOCC3)c3cnn(C4CCN(C(=O)c5cccnc5)CC4)c3n2)cc1)NC1CC1` [Compound 659, 1-cyclopropyl-3-(4-{4-morpholin-4-yl-1-[1-(pyridin-3-ylcarbonyl)piperidin-4-yl]-1H-pyrazolo[3,4-d]pyrimidin-6-yl}phenyl)urea]: the half-inhibitory concentration (IC50) was 357 nM.

Consider `Oc1cccc(-c2nc(N3CCSCC3)c3cnn(-c4ccccc4)c3n2)c1` [Compound 963, 3-(1-phenyl-4-thiomorpholin-4-yl-1H-pyrazolo[3,4-d]pyrimidin-6-yl)phenol], for which the 50% inhibitory concentration (IC50) is 1620 nM.

Consider `Oc1cccc(-c2nc(N3CCOCC3)c3c(F)nn(-c4ccccc4)c3n2)c1` [Compound 964, 3-(3-fluoro-4-morpholin-4-yl-1-phenyl-1H-pyrazolo[3,4-d]pyrimidin-6-yl)phenol], for which the IC50 was 70 nM.

Take `COCOc1cncc(-c2nc(N3CCOCC3)c3cnn(C4CCN(Cc5ccccc5)CC4)c3n2)c1` [Compound 249, 1-(1-benzylpiperidin-4-yl)-6-[5-(methoxymethoxy)pyridin-3-yl]-4-morpholin-4-yl-1H-pyrazolo[3,4-d]pyrimidine]: the IC50 amounted to 2000 nM.

For the compound `CNC(=O)Nc1ccc(-c2nc(N3CCOCC3)c3cnn(C4CCN(Cc5ccc(Cl)cc5)CC4)c3n2)cc1` [Compound 639, 1-(4-{1-[1-(4-chlorobenzyl)piperidin-4-yl]-4-morpholin-4-yl-1H-pyrazolo[3,4-d]pyrimidin-6-yl}phenyl)-3-methylurea], the IC50 came to 18 nM.

`CNC(=O)Nc1ccc(-c2nc(N3CCOCC3)c3cnn(C4CCN(C(=O)c5ccc[n+]([O-])c5)CC4)c3n2)cc1` [Example 328, 1-methyl-3-[4-(4-morpholin-4-yl-1-{1-[(1-oxidopyridin-3-yl)carbonyl]piperidin-4-yl}-1H-pyrazolo[3,4-d]pyrimidin-6-yl)phenyl]urea]: the IC50 turned out to be 198 nM.

Take `Oc1cncc(-c2nc(N3CCOCC3)c3cnn(C4CCN(Cc5ccccc5)CC4)c3n2)c1` [Compound 250, 5-[1-(1-benzylpiperidin-4-yl)-4-morpholin-4-yl-1H-pyrazolo[3,4-d]pyrimidin-6-yl]pyridin-3-ol]: the IC50 was 37 nM.

Take `NCCC(=O)Nc1ccc(-c2nc(N3CCOCC3)c3cn[nH]c3n2)cc1` [Compound 529, N-[4-(4-morpholin-4-yl-1H-pyrazolo[3,4-d]pyrimidin-6-yl)phenyl]-b-alaninamide]: the IC50 was 202 nM.

Turning to `COC(=O)Nc1cccc(-c2nc(N3CCOCC3)c3cnn(C4CCN(Cc5ccccc5)CC4)c3n2)c1` [Compound 227, methyl {3-[1-(1-benzylpiperidin-4-yl)-4-morpholin-4-yl-1H-pyrazolo[3,4-d]pyrimidin-6-yl]phenyl}carbamate], the IC50 was found to be 9020 nM.

Turning to `CCNC(=O)Nc1ccc(-c2nc(N3CCOCC3)c3cnn(C4CCN(C(=O)c5cccnc5)CC4)c3n2)c(F)c1` [Compound 706, 1-ethyl-3-(3-fluoro-4-{4-morpholin-4-yl-1-[1-(pyridin-3-ylcarbonyl)piperidin-4-yl]-1H-pyrazolo[3,4-d]pyrimidin-6-yl}phenyl)urea], the half-maximal inhibitory concentration (IC50) was found to be 1620 nM.

On to `COC(=O)Nc1ccc(-c2nc(N3CCOCC3)c3cnn(C4CCN(C(=O)c5ccccc5OC)CC4)c3n2)cc1` [Compound 690, methyl (4-{1-[1-(2-methoxybenzoyl)piperidin-4-yl]-4-morpholin-4-yl-1H-pyrazolo[3,4-d]pyrimidin-6-yl}phenyl)carbamate], for which the IC50 amounted to 888 nM.

Turning to `CCCOC(=O)Nc1ccc(-c2nc(N3CCOCC3)c3cnn(C4CCN(Cc5ccccc5)CC4)c3n2)cc1` [Compound 255, propyl {4-[1-(1-benzylpiperidin-4-yl)-4-morpholin-4-yl-1H-pyrazolo[3,4-d]pyrimidin-6-yl]phenyl}carbamate], the IC50 stood at 4110 nM.

On to `COC(=O)Nc1ccc(-c2nc(N3CCOCC3)c3cnn(C4CCN(C(=O)c5ccccc5)CC4)c3n2)cc1` [Compound 686, methyl {4-[1-(1-benzoylpiperidin-4-yl)-4-morpholin-4-yl-1H-pyrazolo[3,4-d]pyrimidin-6-yl]phenyl}carbamate], for which the IC50 is 1010 nM.

Take `CNC(=NC#N)Nc1ccc(-c2nc(N3CCOCC3)c3cnn(C4CCN(Cc5cccnc5)CC4)c3n2)cc1` [Compound 651, 2-cyano-1-methyl-3-(4-{4-morpholin-4-yl-1-[1-(pyridin-3-ylmethyl)piperidin-4-yl]-1H-pyrazolo[3,4-d]pyrimidin-6-yl}phenyl)guanidine]: the IC50 is 774 nM.

As to `COC(=O)Nc1ccc(-c2nc(N3CCOCC3)c3cnn(C4CCN(Cc5ccccc5Cl)CC4)c3n2)cc1` [Compound 699, methyl (4-{1-[1-(2-chlorobenzyl)piperidin-4-yl]-4-morpholin-4-yl-1H-pyrazolo[3,4-d]pyrimidin-6-yl}phenyl)carbamate], the IC50 was determined as 786 nM.

With `COC(=O)Nc1ccc(-c2nc(N3CCOCC3)c3cnn(C4CCNCC4)c3n2)cc1` [Compound 703, methyl [4-(4-morpholin-4-yl-1-piperidin-4-yl-1H-pyrazolo[3,4-d]pyrimidin-6-yl)phenyl]carbamate], the IC50 amounted to 1070 nM.

On to `CNC(=O)Nc1ccc(-c2nc(N3CCOCC3)c3cnn(C4CCN(C(=O)c5cccnc5)CC4)c3n2)c(F)c1` [Example 461, 1-(3-fluoro-4-{4-morpholin-4-yl-1-[1-(pyridin-3-ylcarbonyl)piperidin-4-yl]-1H-pyrazolo[3,4-d]pyrimidin-6-yl}phenyl)-3-methylurea], for which the IC50 is 887 nM.
